Source: patent US8143316B2, “Method for treating peripheral vascular diseases” (Sucampo AG, priority 2005, dated 2012)

Columns and labels:
Male Wistar rats = test: Decreased peripheral microcirculation (cutaneous tissue blood flow) induced by ET-1 infusion in rats; type: in vivo, rat; conditions: 100 μg/kg i.v.; for blood pressure: ET-1 infused rats; for cutaneous tissue blood flow: flow decreased by ET-1 infusion, up to 60 min after administration, vs vehicle
Experimental: Male Wistar rats (7-week-old) were used in this study. Animals were anesthetized by intraperitoneal injection of thiobutabarbital sodium (80 mg/kg). Body temperature (rectal temperature) of the animals was maintained at approximately 37° C. throughout the experiment with a heating pad. After depilating the instep of the right hind limb with a depilatory cream, the cutaneous tissue blood flow was measured continuously using a non-contact type laser Doppler flowmeter (FLO-N1, Omegawave Inc., Japan). For measurements of mean arterial blood pressure, a polyethylene catheter placed in the left femoral artery was connected to a pressure transducer (TP-400T, Nihon Koden Inc., Japan) coupled to an amplifier (AP-641G, Nihon Koden Inc., Japan). The cutaneous tissue blood flow and blood pressure were recorded and analyzed using a computer system (HEM Ver. 3.5, Notocord Systems, France). Endothelin-1 (ET-1) was infused into the femoral artery at a rate of 200 pmol/kg/min with a syringe pump via the polyethylene catheter inserted retrogradely into the caudal epigastric artery branched from the right femoral artery for 15 minutes. Infusion rate of ET-1 was decreased to 20 pmol/kg/min after the termination of 200 pmol/kg/min infusion, and the decreased amount of ET-1 infusion was kept until the end of this study. The cutaneous tissue blood flow was decreased by the infusion of ET-1 into the femoral artery. When the cutaneous tissue blood flow was reached a new steady level (25 to 50 minutes after starting ET-1 infusion), vehicle or each test compound solution was administered to the animals over 2 minutes in a volume of 1 mL/kg via the polyethylene catheter placed in the left femoral vein. The administered amount of the test compound was 100 μg/kg. The cutaneous tissue blood flow and blood pressure were measured continuously and recorded every 5 minutes for 60 minutes after the administration of vehicle or each test solution.

[1] = system: platelet-rich plasma (PRP); test: ADP-induced platelet aggregation in rabbit platelet-rich plasma; type: cell-based; conditions: for Maximum aggregation: ADP-induced, mean ± S.E. of 3 rabbits; for Inhibition of platelet aggregation: vs vehicle control (100%)
Experimental: Four months old male Kbs: J.W. rabbits were housed in aluminum cages in an animal room controlled for roomtemperature (23-24° C.), relative humidity (55-74%), ventilation rate (10-20 times/hour) and 12-hour light/dark cycle (lighting: 7:00 a.m.-7:00 p.m.). The animals were feeded with solid diet for rabbits (120 g/animal/day) and water ad libitum from automatic eatering system. The animals were subjected to at least 6 days of quarantine and acclimation. During the period, their body weight measurements and general sign observations were conducted, and the animals judged to be in good health were used in this study.
A cannula was inserted into the common carotid artery of the rabbit under inhalation anesthesia of isoflurane. Nine parts of the blood samples obtained through the cannula were mixed with 1 part of 3.8 w/v % sodium citrate. After centrifugation of the blood samples for 10 min at 1,000 rpm, platelet-rich plasma (PRP) was collected from the top layer. Then the bottom layer was further centrifuged for 15 min at 3,000 rpm, and platelet-poor plasma (PPP) was collected from the top layer. The platelet counts of the PRP and PPP fractions were performed using an ADVIA120 Hematology system (ADVIA120, Bayer Medical Ltd.). The PRP fraction was diluted with the PPP fraction so that the platelet counts was adjusted to approximately 30×10^4 cells/μL. Thus obtained PRP (0.178 mL) was put into a cuvet, and pre-incubated on a warm bath at 37° C. for about 5 minutes. Test solution (0.022 mL) containing prostaglandin E1 or Compound A was added to the PRP. One minute later, 25 μM ADP solution (0.022 mL) was added and the degree of platelet aggregation was measured using a platelet aggregation measuring device (NBS hematolaser, Nikko Bioscience Inc.). For each test solution, a duplicate test was performed on the blood samples from 3 animals. Inhibition rate (%) was evaluated by comparing the aggregation in the test substance group with that in the vehicle control group (100%).

Male Crl: CD(SD) rats = test: Cutaneous tissue blood flow in anesthetized rats; type: in vivo, rat
Experimental: Male Crl: CD(SD) rats were anesthetized by an intraperitoneal injection of thiobutabarbital sodium. Body temperature (rectal temperature) of the animals was maintained at approximately 37° C. throughout the experiment with a heating pad. After depilating the instep of the right hind limb with a depilatory cream, the cutaneous tissue blood flow CTBF) was measured before and 30 minutes after intravenous administration of Compound C (11-deoxy-13,14-dihyrdo-16,16-difluoro-PGE1) or the vehicle using a non-contact type laser Doppler flowmeter (FLO-N1, Omegawave Inc., Japan). The blood pressure and heart rate were also monitored.

[2] = system: male Japanese white rabbits; test: Intraocular pressure after topical eye application in rabbits; type: in vivo, rabbit; conditions: 0.0016% topical
Experimental: Eight male Japanese white rabbits (Std: JW/CSK) weighing approximately 2.5-3.5 kg were used in this study. The same eye of each animal was treated with the test compounds and the other eye was with the vehicle consistently throughout the study with a washout period between each treatment. Thirty microliters of each test compound solution was applied topically to one eye of each animal using a micropipette (Pipetman, Gilson, Inc., France). The contralateral control eye received an equal volume of the vehicle. The animals were dosed at approximately the same time each morning. After the animals were restrained in a holder, one drop of topical anesthetic (0.4% oxybuprocaine hydrochloride) was applied to both eyes and the IOP was measured with an applanation pneumatonometer (Model 30 Classic™, Mentor O & O, Inc., USA) before dosing, and at 1, 2, 4, 6, and 8 hours after dosing.

[3] = system: streptozotocin-induced diabetic rats; test: Cutaneous tissue blood flow in streptozotocin-induced diabetic rats; type: in vivo, rat
Experimental: Diabetes was induced by single intravenous injection of 50 mg/kg streptozotocin (STZ) in 7-week-old male Crl: CD(SD) rats. Animals with plasma glucose levels 400 mg/dL or more on day 19 after the STZ treatment were used in this study. Three weeks after the STZ injection, animals were anesthetized by an intraperitoneal injection of thiobutabarbital sodium. Body temperature (rectal temperature) of the animals was maintained at approximately 37° C. throughout the experiment with a heating pad After depilating the instep of the right hind limb with a depilatory cream, the cutaneous tissue blood flow (CTBF) was measured continuously using a non-contact type laser Doppler flowmeter (FLO-N1, Omegawave Inc., Japan). The blood pressure and heart rate were simultaneously monitored. Compound A or the vehicle was intravenously administered to the animals over 10 min.

Male GK/Jcl rats = test: Cutaneous tissue blood flow in spontaneous diabetes rats; type: in vivo, rat
Experimental: Male GK/Jcl rats, a spontaneous model of non-insulin-dependent diabetes, were anesthetized by an intraperitoneal injection of thiobutabarbital sodium. Body temperature (rectal temperature) of the animals was maintained at approximately 37° C. throughout the experiment with a heating pad. After depilating the instep of the right hind limb with a depilatory cream, the cutaneous tissue blood flow (CTBF) was measured before (base line) and 20 minutes after intravenous administration of Compound A or the vehicle using a non-contact type laser Doppler flowmeter (FLO-N1, Omegawave Inc., Japan). Data was expressed as % compared with the base line cutaneous tissue blood flow.

CCCCC(F)(F)C(=O)CCC1CCC(=O)C1CCCCCCC(=O)OC(C)C (centres unmarked) [Compound B, 11-deoxy-13,14-dihydro-15-keto-16,16-difluoro-PGE1 isopropyl ester]
blood pressure (Male Wistar rats): no significant effect
cutaneous tissue blood flow (Male Wistar rats): significantly increased

CCCCC[C@H](O)/C=C/[C@H]1[C@H](O)CC(=O)[C@@H]1CCCCCCC(=O)O [PGE1, prostaglandin E1, reference compound]
Maximum aggregation ([1]; 1 × 10^−6 g/mL): 4.0 ± 0.7 %
Inhibition of platelet aggregation ([1]; 1 × 10^−6 g/mL): 89.0%
Maximum aggregation ([1]; 1 × 10^−7 g/mL): 3.2 ± 0.6 %
Inhibition of platelet aggregation ([1]; 1 × 10^−7 g/mL): 91.2%
Maximum aggregation ([1]; 1 × 10^−8 g/mL): 28.7 ± 3.6%
Inhibition of platelet aggregation ([1]; 1 × 10^−8 g/mL): 20.9%

CCCCC(F)(F)C(O)CCC1CCC(=O)C1CCCCCCC(=O)O (centres unmarked) [Compound C, 11-deoxy-13,14-dihyrdo-16,16-difluoro-PGE1]
Cutaneous Tissue Blood Flow, After administration (Male Crl: CD(SD) rats; 10 μg/kg i.v., 30 minutes after administration, mean ± S.E., n=5): 13.0 ± 0.2 mL/min/100 g tissue
Cutaneous Tissue Blood Flow, Before administration (Male Crl: CD(SD) rats; 10 μg/kg i.v., before administration (baseline), mean ± S.E., n=5): 11.6 ± 0.3 mL/min/100 g tissue
blood pressure (Male Crl: CD(SD) rats; i.v.): no effects
heart rate (Male Crl: CD(SD) rats; i.v.): no effects
cutaneous tissue blood flow (in words) (Male Crl: CD(SD) rats; i.v., compared with vehicle treatment): significantly increased

CCCCC(F)(F)C(=O)CCC1CCC(=O)C1CCCCCCC(=O)O (centres unmarked) [Compound A, 11-deoxy-13,14-dihydro-15-keto-16,16-difluoro-PGE1]
IOP, 1 hr after administration ([2]; 30 μL, 1 hr, mean ± SE, n=8): 13.1 ± 0.6 mmHg
IOP, 2 hr after administration ([2]; 30 μL, 2 hr, mean ± SE, n=8): 14.5 ± 0.6 mmHg
IOP, 4 hr after administration ([2]; 30 μL, 4 hr, mean ± SE, n=8): 13.8 ± 0.8 mmHg
IOP, 6 hr after administration ([2]; 30 μL, 6 hr, mean ± SE, n=8): 15.1 ± 1.0 mmHg
IOP, 8 hr after administration ([2]; 30 μL, 8 hr, mean ± SE, n=8): 17.5 ± 1.3 mmHg
IOP, Pre ([2]; 30 μL, before dosing (baseline), mean ± SE, n=8): 17.0 ± 0.8 mmHg
intraocular pressure (in words) ([2]; vs vehicle-treated contralateral eye): significantly lowered
Cutaneous Tissue Blood Flow, Pre ([3]; 30 μg/kg i.v. over 10 min, before dosing (baseline), mean ± S.E., n=5): 4.8 ± 0.5 mL/min/100 g tissue
blood pressure (BP) ([3]; STZ diabetic rats, i.v.): no effects
heart rate ([3]; STZ diabetic rats, i.v.): no effects
cutaneous tissue blood flow (in words) ([3]; STZ diabetic rats, i.v., compared with vehicle): significantly increased
Maximum aggregation ([1]; 1 × 10^−5 g/mL): 36.8 ± 3.1%
Inhibition of platelet aggregation ([1]; 1 × 10^−5 g/mL): −1.4%
Maximum aggregation ([1]; 1 × 10^−6 g/mL): 36.2 ± 4.0%
Inhibition of platelet aggregation ([1]; 1 × 10^−6 g/mL): 0.3%
Maximum aggregation ([1]; 1 × 10^−7 g/mL): 35.2 ± 3.9%
Inhibition of platelet aggregation ([1]; 1 × 10^−7 g/mL): 3.0%
effect on platelet aggregation (in words) ([1]; up to the highest concentration (1×10^−5 g/mL) tested): no effect
Cutaneous Tissue Blood Flow compared with the base line (Male GK/Jcl rats; 20 μg/kg i.v., 20 minutes after administration, mean ± S.E., n=5): 122 ± 1 %
cutaneous tissue blood flow (in words) (Male GK/Jcl rats; spontaneous diabetes rats, i.v., compared with vehicle): significantly increased
blood pressure (Male Wistar rats): no significant effect
cutaneous tissue blood flow (Male Wistar rats): significantly increased
